Assay: gradient 5% acetonitrile 3 min, to 50% in 2 min, to 85% in 15 min, held 3 min, 100 µL/min
Conditions: column: Zorbax Extend-C18 2.1 x 50 mm; eluents: water / acetonitrile, 0.1% formic acid
Summary of the method: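 Mixtures of ~100 pure standards were chromatographed on a Zorbax Extend-C18 column (2.1 × 50 mm, 1.8 μm) at 100 μL/min using water and acetonitrile, each with 0.1% formic acid. Detection used a quadrupole time-of-flight mass spectrometer in positive and negative ionization mode, and data collection spanned 3 months. Retention time was obtained from adduct peaks picked computationally and each checked manually.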

Row | SMILES | RP-LC retention time [s]
1 | Cc1cc(C)c2c(N3CCCCC3)nc(C(=O)NC(C)c3cccnc3)nc2n1 (stereo unspecified) | 568
2 | CCOC(=O)c1nc(Nc2ccc(C)cc2C)c2ccccc2n1 | 831
3 | CCc1nc(-c2ccc(-c3noc(CNC(=O)Cc4ccc(Cl)cc4)n3)cc2)cs1 | 1080
4 | O=C(CCn1cnc2ccccc2c1=O)N1CCN(c2ccccn2)CC1 | 578
5 | CCN1c2ccccc2C(=O)NC12CCN(C(=O)Cc1ccc(OC)cc1)CC2 | 805
6 | CCC(=O)N(C1CCOCC1)C1CCN(Cc2cn(CC)c3ccccc23)CC1 | 674
7 | O=C1CSCc2nc3ccccc3n21 | 634
8 | CCN(CC)c1ncc2c(n1)CCC(C(=O)NCc1nc3ccccc3n1C)C2 (stereo unspecified) | 537
9 | CCc1cc(C(=O)Nc2cccc(C)c2C)nc2ccnn12 | 1150
10 | CNC(=O)c1cc(NC)nc2c(Cl)cccc12 | 568
11 | CCNC(=O)C1CCN(c2nc3ccc(-c4cccc(F)c4)nc3s2)CC1 | 905
12 | COc1cc(NC(=O)C2CCCN(C(=O)c3cc(-c4ccncc4)n[nH]3)C2)cc(OC)c1OC (stereo unspecified) | 591
13 | O=C(CCc1nc(-c2ccc(N3CCCC3)cc2)no1)N1CCN(c2ccc(Cl)cc2)CC1 | 1240
14 | Cc1nc(-c2ccc(S(=O)(=O)Nc3ccc(S(N)(=O)=O)cc3)cc2)co1 | 706
15 | O=C(CSc1nnc(CNC(=O)c2cccc(C(F)(F)F)c2)o1)NCC1CCCO1 (stereo unspecified) | 664
16 | CN(C)C(=O)c1ccc2c(c1)N(CC(=O)NCCc1c[nH]c3ccccc13)C(=O)C1CCCCN21 (stereo unspecified) | 781
17 | Cc1ccc(CN2CCN(C3CCN(C(=O)Nc4ccc(F)c(Cl)c4)CC3)C(=O)C2=O)cc1 | 849
18 | CC(=O)N1CCN(c2nc3c(s2)CC(C(=O)N2CCC(C)CC2)CC3)CC1 (stereo unspecified) | 537

Row | SMILES | RP-LC retention time [s]
19 | Cc1cccc(Sc2nccnc2N2CCCC(C(=O)NCc3ccc4c(c3)OCO4)C2)c1 (stereo unspecified) | 1030
20 | COc1cc2c(cc1OC)C(C(=O)NCCCN1CCN(C)CC1)C(c1cccs1)N(C)C2=O (stereo unspecified) | 572
21 | CCC(=O)n1nc(-c2ccccc2C)nc1N | 875
22 | O=C(Nc1nnc(C2CC(=O)N(c3ccccc3)C2)o1)c1ccccc1Cl (stereo unspecified) | 807
23 | Cc1nnc(-c2cc(NC(=O)c3ccc(C(F)(F)F)cc3)c(C)s2)o1 | 986
24 | CCCn1c(C2CCN(C(=O)Nc3ccc(C)cc3)CC2)cc(=O)n2nccc12 | 653
25 | O=C(c1ccc2cc[nH]c2c1)N1CCC2(CC1)N=C(c1ccccc1)NO2 | 770
26 | CC1Oc2ccc(S(=O)(=O)N3CCC(C(=O)N4CCCc5ccccc54)CC3)cc2NC1=O (stereo unspecified) | 891
27 | CCn1cc(-c2nc(C(=O)NCc3cccc(C)c3)cs2)c2cccnc21 | 1060
28 | Cc1ccc(Sc2nccnc2N2CCCC(C(=O)Nc3cc(C)cc(C)c3)C2)cc1 (stereo unspecified) | 1150
29 | Cc1ccc(N2C(=O)N(Cc3ccccc3)S(=O)(=O)c3cccnc32)cc1 | 1060
30 | CCc1ccc(C2=C(C)C(N3CCCN(C(=O)C4CCCC4)CC3)=NS2(=O)=O)cc1 | 946
31 | CCOc1ccc(OCC)c(S(=O)(=O)N2CCN(c3nc(C)cc(N(C)C)n3)CC2)c1 | 733
32 | CC(=O)N1CCc2[nH]c3ccc(C(=O)NCc4ccc(N5CCCC5)cc4)cc3c2C1 | 1120
33 | CC(Oc1ccccc1)c1nc(-c2ccc3c(c2)nnn3CCC(=O)N2CCOCC2)no1 (stereo unspecified) | 852
34 | CCc1ccc2[nH]c3c(c(=O)c2c1)CN(CC(=O)NCc1cccc(OC)c1)CC3 | 629
35 | CCCN1C(=O)CCc2c(C)ncnc21 | 611
36 | COC(=O)c1cc(S(=O)(=O)N2CCCC2C(=O)Nc2ccc(C)cc2Br)cn1C (stereo unspecified) | 1000

Source: the METLIN SMRT retention time set (Domingo-Almenara et al. 2019)
